Reference: patent US20130029956A1, “NEW METHOD” (ASTRAZENECA AB, priority 1997, published 2013)
Marks after values point to notes of the source that are not given here.

Columns and labels:
Assay type in all cases: in vivo, human (children six months to eight years)
[1] = tested on: plasma cortisol levels (HPA-axis function); test: Basal and post-ACTH-stimulated plasma cortisol levels, Example 1; conditions: 0.25, 0.5, 1.0 mg once a day; baseline to week 12 versus placebo
Procedure: (§1) Safety variables were: (a) reported adverse effects that could be due to the drug; (b) morning basal and post-ACTH-simulation effects on plasma cortisol levels (HPA-axis function); and (c) changes in physical examinations, vital signs, and clinical laboratory tests, including oropharyngeal and nasal fungal cultures.
(§2) Analysis of variance was used to compare differences between treatment groups for all efficacy variables, with the exception of patient outcomes, which were analyzed using Fisher's exact test. Analysis of variance was also used for morning basal and post-ACTH-simulation effects on plasma cortisol levels. Descriptive statistics were used to present all other safety data.
[…] is stimulated by injection (intravenous for young children and intramuscular for infants) of corticotropin one hour before morning blood sampling.

[2] = tested on: plasma cortisol levels (HPA-axis function); test: Basal and post-ACTH-stimulated plasma cortisol levels, Example 2; conditions: 0.25 mg QD, 0.25 mg BID, 0.5 mg BID, 1.0 mg QD; baseline to week 12 versus placebo
Description: (§3) Safety variables were: (a) reported adverse events that could be due to the drug; (b) morning basal and post-ACTH-simulation effects on plasma cortisol levels (HPA-axis function) in a subset of patients; and (c) changes in physical examinations, vital signs and clinical laboratory tests, including oropharyngeal and nasal fungal cultures.
(§4) Analysis of variance was used to compare differences between treatment groups for all efficacy variables, with the exception of patient discontinuations from the study, which was analyzed using Fisher's exact test. Analysis of variance was also used for morning basal and post-ACTH-simulation effects on plasma cortisol levels. Descriptive statistics were used to present all other safety data.

asthmatic children [3] = test: Phase III study of four dose regimens of budesonide nebulizing suspension and placebo in asthmatic children (Example 2); parameters: Nighttime Asthma Symptom Score: scale not given here; FEV1: unit not given here; conditions: for FEV1 / Evening PEF / Morning PEF / Daytime Asthma Symptom Score / Nighttime Asthma Symptom Score / Number of Days Use of Breakthrough Medication: adjusted mean change from baseline over 12 weeks; for proportion of patients discontinuing due to worsening asthma: placebo 26.3%; for total proportion of patients who were discontinued: placebo 39%
Procedure: The objectives of the study were to compare the relative efficacy and safety of budesonide in a nebulizing suspension (0.25 mg administered once a day (QD), 0.25 mg administered twice per day (BID), 0.5 mg BID or 1.0 mg QD) in pediatric asthmatic patients aged six months to eight years.
(§5) This was a multicenter, randomized double-blind, placebo-controlled, parallel-group study.
Patients were mild to moderate asthmatic children aged six months to eight years of age with a diagnosis of asthma as defined by the National Institutes of Health of the U.S. Department of Health and Human Services, including:
(a) exacerbations of cough and/or wheezing on a frequent basis, including nocturnal asthma, with infrequent severe exacerbations during the last six months; (b) daily use of at least one chronic asthma medication (which could have been an inhaled GCS) with periodic use of breakthrough medication for at least three months prior to Visit 1; and (c) basal FEV1 of […] of predicted and reversibility of […] at 15±5 minutes after a standard dose of inhaled bronchodilator for patients capable of performing consistent PFTs. […]
Primary efficacy variables were mean changes from baseline in daytime and nighttime asthma symptom scores over the 12-week treatment phase. The symptom scores were obtained as in Example 1.
Secondary efficacy variables were: (a) the number of days breakthrough (bronchodilator) medication was used; (b) spirometry test variables, including FEV1, FEF25-75, and FVC performed at clinic visits in the subset of patients capable of performing spirometry testing; (c) PEF measured daily in the morning and evening in the subset of patients capable of performing PEFs; and (d) proportion of patient discontinuations from the study.
as §3, §4
A total of 471 patients were evaluated for efficacy (all patients treated). Data are expressed as the adjusted mean change from baseline over the 12-week treatment phase, all patients treated, last value carried forward (*p≦0.050; **p≦0.010 and ***p≦0.001, versus placebo; “n” is the number of patients).

asthmatic children [4] = test: Phase III study of three dose levels of once-a-day budesonide nebulizing suspension and placebo in asthmatic children (Example 1); conditions: for Asthma scores: Daytime / Asthma scores: Nighttime: 0-3 score; for proportion of patients discontinuing due to worsening asthma: placebo 23%; for total proportion of patients who were discontinued: placebo 28%
Procedure: The objectives of the study were to compare the relative efficacy and safety of a nebulizing suspension of budesonide (containing 0.25 mg, 0.5 mg, or 1.0 mg of budesonide per dose), administered once a day, in pediatric asthmatic patients aged six months to eight years.
as §5
Patients were asthmatic children who had not been treated with steroids in the 30 days prior to initiation of the study treatment.
Budesonide was administered once per day as a nebulized suspension, at 0.25 mg, 0.5 mg, or 1.0 mg per administration, via a Pari LC-Jet Plus® nebulizer connected to a Pari Master® compressor (Pari Respiratory Equipment, Inc., Richmond, Va.) with a face mask or a mouth piece. The placebo was the solvent used for the budesonide suspension (0.1 mg disodium edetate, 8.5 mg NaCl, 0.2 mg polysorbate, 0.28 mg anhydrous citric acid, and 0.5 mg sodium citrate per 1 ml water) but without budesonide.
Primary efficacy variables were mean changes from baseline in daytime and nighttime asthma symptom scores over the 12 week treatment phase. The symptom scores are based on the subjective evaluation by the patients or their parents based on a 0-3 rating system in which 0=no symptoms, 1=mild symptoms, 2=moderate symptoms, and 3=severe symptoms.
Secondary efficacy variables were: (a) patient outcomes, including the proportion of patients who were discontinued from the study for any reason and the proportion of patients who were discontinued from this study due to worsening asthma; (b) the number of days breakthrough (bronchodilator) medication was used; (c) spirometry test variables, including FEV1, FEF25-75 (forced expiratory flow during the middle half of the forced vital capacity in liters per second) and FVC (forced vital capacity in liters), performed at clinic visits in the subset of patients capable of performing spirometry testing; (d) PEF (peak expiratory flow in liters per minute) measured daily in the morning and evening in the subset of patients capable of performing PEF testing; (e) changes in health status measurements, including the Modified Functional Status II Scale Child Health Status Scale and the RAND General Health Index; and (f) differences in asthma-related health care utilization and indirect health care costs.
as §1, §2
Results of nighttime and daytime asthma symptom scores, and the number of days of use of breakthrough medication are presented in Table 1. Data are expressed as the adjusted mean change from baseline over the 12-week treatment phase, all patients treated, last value carried forward (*p≦0.050, **p≦0.010, and ***p≦0.001 versus placebo (PBO); “n” is number of patients). Thus improvements are indicated by negative values of these variables.

[5] = 0.25 mg BID, n = 34, no unit in table
[6] = 0.5 mg BID, n = 29, no unit in table
[7] = 1.0 mg QD, n = 34, no unit in table
[8] = 0.25 mg once a day nebulized, adjusted mean change from baseline over 12 weeks, n = 91
[9] = 0.5 mg once a day nebulized, adjusted mean change from baseline over 12 weeks, n = 82
[10] = 1.0 mg once a day nebulized, adjusted mean change from baseline over 12 weeks, n = 93

CCCC1O[C@@H]2C[C@H]3[C@@H]4CCC5=CC(=O)C=C[C@]5(C)[C@H]4[C@@H](O)C[C@]3(C)[C@]2(C(=O)CO)O1 (stereo partly drawn) [Budesonide, budesonide]
HPA-axis suppression (basal and post-ACTH-stimulated plasma cortisol) [1]: no evidence of HPA-axis suppression
HPA-axis suppression (basal and post-ACTH-stimulated plasma cortisol) [2]: no evidence of HPA-axis suppression
FEV1 (asthmatic children [3]; 0.25 mg BID, n = 33, no unit in table): 0.03
Evening PEF (asthmatic children [3]; [5]): 19.2* ^
Morning PEF (asthmatic children [3]; [5]): 23.0**
Daytime Asthma Symptom Score (asthmatic children [3]; 0.25 mg BID, n = 97): −0.40*
Nighttime Asthma Symptom Score (asthmatic children [3]; 0.25 mg BID, n = 97): −0.49***
Number of Days Use of Breakthrough Medication (asthmatic children [3]; 0.25 mg BID, n = 97): −5.22*** days
proportion of patients discontinuing due to worsening asthma (asthmatic children [3]; 0.25 mg BID, p=0.029): 13.1%
total proportion of patients who were discontinued (asthmatic children [3]; 0.25 mg BID): 21%
FEV1 (asthmatic children [3]; 0.25 mg QD, n = 31, no unit in table): 0.07
Evening PEF (asthmatic children [3]; 0.25 mg QD, n = 32, no unit in table): 16.8*
Morning PEF (asthmatic children [3]; 0.25 mg QD, n = 32, no unit in table (baseline PEF in L/min)): 10.9
Daytime Asthma Symptom Score (asthmatic children [3]; 0.25 mg QD, n = 92): −0.28
Nighttime Asthma Symptom Score (asthmatic children [3]; 0.25 mg QD, n = 93): −0.28
Number of Days Use of Breakthrough Medication (asthmatic children [3]; 0.25 mg QD, n = 93): −4.39* days
proportion of patients discontinuing due to worsening asthma (asthmatic children [3]; 0.25 mg QD): 16.0%
total proportion of patients who were discontinued (asthmatic children [3]; 0.25 mg QD): 21%
Evening PEF (asthmatic children [3]; [6]): 21.0**
FEV1 (asthmatic children [3]; [6]): 0.17*
Morning PEF (asthmatic children [3]; [6]): 24.8**
Daytime Asthma Symptom Score (asthmatic children [3]; 0.5 mg BID, n = 96): −0.46**
Nighttime Asthma Symptom Score (asthmatic children [3]; 0.5 mg BID, n = 96): −0.42**
Number of Days Use of Breakthrough Medication (asthmatic children [3]; 0.5 mg BID, n = 96): −4.92** days
proportion of patients discontinuing due to worsening asthma (asthmatic children [3]; 0.5 mg BID): 15.3%
total proportion of patients who were discontinued (asthmatic children [3]; 0.5 mg BID): 19%
Evening PEF (asthmatic children [3]; [7]): 14.1
FEV1 (asthmatic children [3]; [7]): 0.11
Morning PEF (asthmatic children [3]; [7]): 17.1*
Daytime Asthma Symptom Score (asthmatic children [3]; 1.0 mg QD, n = 93): −0.37*
Nighttime Asthma Symptom Score (asthmatic children [3]; 1.0 mg QD, n = 93): −0.40**
Number of Days Use of Breakthrough Medication (asthmatic children [3]; 1.0 mg QD, n = 93): −4.38* days
proportion of patients discontinuing due to worsening asthma (asthmatic children [3]; 1.0 mg QD): 21.1%
total proportion of patients who were discontinued (asthmatic children [3]; 1.0 mg QD): 31%
number of patients with clinically significant changes in nasal or oral fungal cultures between treatment groups (asthmatic children [3]; four regimens, 12 weeks): no apparent differences
type, incidence or severity of adverse events compared to placebo (asthmatic children [3]; in vivo): no clinically relevant differences
vital signs or physical examination outcomes between treatment groups (asthmatic children [3]; in vivo): no clinically relevant differences
Asthma scores: Daytime (asthmatic children [4]; [8]): −0.57**
Asthma scores: Nighttime (asthmatic children [4]; [8]): −0.49***
FEV1 (asthmatic children [4]; 0.25 mg once a day, adjusted mean change from baseline over 12 weeks, n = 29): -0.01 L
Morning PEF (asthmatic children [4]; 0.25 mg once a day, adjusted mean change from baseline over 12 weeks, n = 44): 14.4 L/min
Days of use of bronchodilator (asthmatic children [4]; 0.25 mg once a day, adjusted mean change from baseline over 12 weeks, n = 91): −6.26* days
proportion of patients discontinuing due to worsening asthma (asthmatic children [4]; 0.25 mg once a day): 14%
total proportion of patients who were discontinued (asthmatic children [4]; 0.25 mg once a day): 19%
Asthma scores: Daytime (asthmatic children [4]; [9]): −0.46*
Asthma scores: Nighttime (asthmatic children [4]; [9]): −0.42**
FEV1(L) (asthmatic children [4]; 0.5 mg once a day, adjusted mean change from baseline over 12 weeks, n = 28): 0.03* L
Morning PEF (asthmatic children [4]; 0.5 mg once a day, adjusted mean change from baseline over 12 weeks, n = 41): 6.5 L/min
Days of use of bronchodilator (asthmatic children [4]; 0.5 mg once a day, adjusted mean change from baseline over 12 weeks, n = 82): −5.31* days
proportion of patients discontinuing due to worsening asthma (asthmatic children [4]; 0.5 mg once a day): 17%
total proportion of patients who were discontinued (asthmatic children [4]; 0.5 mg once a day): 24%
Asthma scores: Daytime (asthmatic children [4]; [10]): −0.50*
Asthma scores: Nighttime (asthmatic children [4]; [10]): −0.42**
FEV1(L) (asthmatic children [4]; 1.0 mg once a day, adjusted mean change from baseline over 12 weeks, n = 33): 0.03* L
Morning PEF (asthmatic children [4]; 1.0 mg once a day, adjusted mean change from baseline over 12 weeks, n = 55): 10.9 L/min
Days of use of bronchodilator (asthmatic children [4]; 1.0 mg once a day, adjusted mean change from baseline over 12 weeks, n = 93): −5.98* days
proportion of patients discontinuing due to worsening asthma (asthmatic children [4]; 1.0 mg once a day): 13%
total proportion of patients who were discontinued (asthmatic children [4]; 1.0 mg once a day, p=0.020): 14%
vital signs or physical examination differences between treatment groups (asthmatic children [4]; in vivo): no clinically relevant differences
clinically significant changes in nasal or oral fungal cultures between treatment groups (asthmatic children [4]; three doses once a day, 12 weeks): no clinically relevant differences
